Experimental data taken from patent US20070021451A1, “Method for preventing or treating neurologic damage after spinal cord injury” (HAMAMATSU UNIVERSITY SCHOOL OF MEDICINE, priority 2005, published 2007).

Legend:
[1] = tested on: Rabbit Model of Spinal Cord Ischemia; assay: Neurologic assessment: hind-limb motor function by modified Tarlov scale; type: in vivo, New Zealand White rabbits
Method: Twenty-six male New Zealand White rabbits weighting 2.2 to 3.0 kg were used in this experiment. Spinal cord ischemia was induced by occluding the abdominal aorta with […] for 20 minutes just distal to the renal arteries. Surgical preparation was conducted according to the method described in the literature, Terada H. et. al., J. Thorac. Cardiovasc. Surg. 2001; 122: 979-85. A 24-gauge venous catheter was placed in the marginal ear vein for drug administration. The rabbits were anesthetized with intravenous sodium pentobarbital (25 mg/kg) and allowed to breathe spontaneously. Lidocaine (0.5%) was administered at the site of the skin incision as local anesthesia. The left common carotid artery was cannulated with a 24-gauge catheter for monitoring the arterial pressure. Core body temperature was continuously monitored with a rectal probe and was maintained at 38.5° C. with the aid of heating lamp. The infrarenal abdominal aorta was exposed through a transperitoneal approach. After systemic heparinization (200 U/kg), spinal cord ischemia was induced by occluding the abdominal aorta with […] for 20 minutes just distal to the renal arteries and just above the aortic bifurcation. Then, the […] released, and the flank was closed. […] The rabbits were assigned randomly to 1 of the 4 groups and subjected to the treatment of (1) above in the following manner. The sham group (n=3) underwent the same operation without aortic occlusion. The control group (n=7) received saline (1 ml) intravenously 15 minutes before aortic occlusion. NS-7 (1 mg/kg) was administered intravenously as a bolus dose 15 minutes before aortic occlusion in group A (n=8) or just after releasing the […] onset of reperfusion) in group B (n=8). Hind-limb motor function was scored 24 and 48 hours after the operation by the modified Tarlov scale.

[2] = Physiologic parameters (body weight, rectal temperature, mean arterial blood pressure) in rabbit model of spinal cord ischemia; type: in vivo, New Zealand White rabbits
Method: Twenty-six male New Zealand White rabbits weighting 2.2 to 3.0 kg were used in this experiment. Spinal cord ischemia was induced by occluding the abdominal aorta with […] for 20 minutes just distal to the renal arteries. Surgical preparation was conducted according to the method described in the literature, Terada H. et. al., J. Thorac. Cardiovasc. Surg. 2001; 122: 979-85. A 24-gauge venous catheter was placed in the marginal ear vein for drug administration. The rabbits were anesthetized with intravenous sodium pentobarbital (25 mg/kg) and allowed to breathe spontaneously. Lidocaine (0.5%) was administered at the site of the skin incision as local anesthesia. The left common carotid artery was cannulated with a 24-gauge catheter for monitoring the arterial pressure. Core body temperature was continuously monitored with a rectal probe and was maintained at 38.5° C. with the aid of heating lamp. The infrarenal abdominal aorta was exposed through a transperitoneal approach. After systemic heparinization (200 U/kg), spinal cord ischemia was induced by occluding the abdominal aorta with […] for 20 minutes just distal to the renal arteries and just above the aortic bifurcation. Then, the […] released, and the flank was closed. […] The rabbits were assigned randomly to 1 of the 4 groups and subjected to the treatment of (1) above in the following manner. The sham group (n=3) underwent the same operation without aortic occlusion. The control group (n=7) received saline (1 ml) intravenously 15 minutes before aortic occlusion. NS-7 (1 mg/kg) was administered intravenously as a bolus dose 15 minutes before aortic occlusion in group A (n=8) or just after releasing the […] onset of reperfusion) in group B (n=8). All the animals survived the entire observation period. Body weight, rectal temperature, and mean arterial blood pressure values at baseline, 10 minutes after ischemia, and 10 minutes after reperfusion are shown in Table 1. There were no significant differences in the weights of the animals.

[3] = Group A (n = 8, NS-7 1 mg/kg i.v. 15 min before aortic occlusion), 24 h after operation
[4] = Group A (n = 8, NS-7 1 mg/kg i.v. 15 min before aortic occlusion), 48 h after operation
[5] = Group B (n = 8, NS-7 1 mg/kg i.v. at onset of reperfusion), 24 h after operation
[6] = Group B (n = 8, NS-7 1 mg/kg i.v. at onset of reperfusion), 48 h after operation
[7] = Group A (NS-7 1 mg/kg i.v. 15 min before aortic occlusion), Baseline
[8] = Group A (NS-7 1 mg/kg i.v. 15 min before aortic occlusion), Ischemia, 10 min
[9] = Group A (NS-7 1 mg/kg i.v. 15 min before aortic occlusion), Reperfusion, 10 min
[10] = Group B (NS-7 1 mg/kg i.v. at onset of reperfusion), Baseline
[11] = Group B (NS-7 1 mg/kg i.v. at onset of reperfusion), Ischemia, 10 min
[12] = Group B (NS-7 1 mg/kg i.v. at onset of reperfusion), Reperfusion, 10 min

Cc1cc(-c2ccc(F)cc2)cc(OCCCCCN2CCCCC2)n1.Cl [NS-7, 4-(4-Fluorophenyl)-2-methyl-6-(5-piperidinopentyloxy)pyridine hydrochloride]
Number of rabbits with Tarlov score 0 [1, 3]: 0
Number of rabbits with Tarlov score 1 [1, 3]: 0
Number of rabbits with Tarlov score 2 [1, 3]: 0
Number of rabbits with Tarlov score 3 [1, 3]: 2
Number of rabbits with Tarlov score 4 [1, 3]: 3
Number of rabbits with Tarlov score 5 [1, 3]: 3
Number of rabbits with Tarlov score 0 [1, 4]: 0
Number of rabbits with Tarlov score 1 [1, 4]: 0
Number of rabbits with Tarlov score 2 [1, 4]: 1
Number of rabbits with Tarlov score 3 [1, 4]: 2
Number of rabbits with Tarlov score 4 [1, 4]: 4
Number of rabbits with Tarlov score 5 [1, 4]: 1
Number of rabbits with Tarlov score 0 [1, 5]: 0
Number of rabbits with Tarlov score 1 [1, 5]: 0
Number of rabbits with Tarlov score 2 [1, 5]: 0
Number of rabbits with Tarlov score 3 [1, 5]: 2
Number of rabbits with Tarlov score 4 [1, 5]: 1
Number of rabbits with Tarlov score 5 [1, 5]: 5
Number of rabbits with Tarlov score 0 [1, 6]: 0
Number of rabbits with Tarlov score 1 [1, 6]: 0
Number of rabbits with Tarlov score 2 [1, 6]: 1
Number of rabbits with Tarlov score 3 [1, 6]: 2
Number of rabbits with Tarlov score 4 [1, 6]: 1
Number of rabbits with Tarlov score 5 [1, 6]: 4
Recovery of motor function in the hind limbs ([1]; group A and B, 24 hours and 48 hours after the operation, P<0.01 vs control): remarkably enhanced
MAP (mean arterial blood pressure) [2, 7]: 83 ± 5 mmHg
Rectal Temp. [2, 7]: 38.4 ± 0.7 °C
MAP (mean arterial blood pressure) [2, 8]: 85 ± 5 mmHg
Rectal Temp. [2, 8]: 38.1 ± 0.4 °C
MAP (mean arterial blood pressure) [2, 9]: 78 ± 10 mmHg
Rectal Temp. [2, 9]: 38.1 ± 0.2 °C
MAP (mean arterial blood pressure) [2, 10]: 91 ± 6 mmHg
Rectal Temp. [2, 10]: 38.5 ± 0.4 °C
MAP (mean arterial blood pressure) [2, 11]: 86 ± 7 mmHg
Rectal Temp. [2, 11]: 38.4 ± 0.5 °C
MAP (mean arterial blood pressure) [2, 12]: 81 ± 8 mmHg
Rectal Temp. [2, 12]: 38.6 ± 0.5 °C
